The values that follow come from patent US8471005B2 (Cephalon, Inc., priority 2008, dated 2013).

The target of test [1] is T1, ALK (Homo sapiens, UniProt Q9UM73).
T1 construct: host or cells: baculovirus expression system
As to the kind of experiment: ALK Kinase Assay (ELISA/TRF, PLC-γ substrate). The test is classed as biochemical. Conditions: ALK Kinase Inhibition; read-out: ALK Potency. The essentials:
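Time-resolved fluorescence ELISA using Eu-N1 PT66 antibody to detect phosphorylated PLC-γ (coated at 10 μg/mL). Enzyme at 30 ng/ml ALK; 15 min incubation, 37° C.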
Background: ELISA stands for enzyme-linked immunosorbent assay.

Test [2] concerns the target T2, JAK2 (Homo sapiens, UniProt O60674).
T2 construct: host or cells: baculovirus expression system
The experiment in a line: Recombinant Human JAK2 Kinase Assay (TRF). The test is classed as biochemical. The conditions noted are these: JAK2 Kinase Inhibition; read-out: JAK2 Potency. The method, boiled down:
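Kinase activity of baculovirus-expressed JAK2 is followed on a surface-immobilised biotinylated peptide, with the reaction run for 20 min at room temperature in buffer containing 0.2 μM ATP and manganese. Phosphorylation is read with Eu-N1 PY100 antibody.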

T2 sequence (O60674 whole entry): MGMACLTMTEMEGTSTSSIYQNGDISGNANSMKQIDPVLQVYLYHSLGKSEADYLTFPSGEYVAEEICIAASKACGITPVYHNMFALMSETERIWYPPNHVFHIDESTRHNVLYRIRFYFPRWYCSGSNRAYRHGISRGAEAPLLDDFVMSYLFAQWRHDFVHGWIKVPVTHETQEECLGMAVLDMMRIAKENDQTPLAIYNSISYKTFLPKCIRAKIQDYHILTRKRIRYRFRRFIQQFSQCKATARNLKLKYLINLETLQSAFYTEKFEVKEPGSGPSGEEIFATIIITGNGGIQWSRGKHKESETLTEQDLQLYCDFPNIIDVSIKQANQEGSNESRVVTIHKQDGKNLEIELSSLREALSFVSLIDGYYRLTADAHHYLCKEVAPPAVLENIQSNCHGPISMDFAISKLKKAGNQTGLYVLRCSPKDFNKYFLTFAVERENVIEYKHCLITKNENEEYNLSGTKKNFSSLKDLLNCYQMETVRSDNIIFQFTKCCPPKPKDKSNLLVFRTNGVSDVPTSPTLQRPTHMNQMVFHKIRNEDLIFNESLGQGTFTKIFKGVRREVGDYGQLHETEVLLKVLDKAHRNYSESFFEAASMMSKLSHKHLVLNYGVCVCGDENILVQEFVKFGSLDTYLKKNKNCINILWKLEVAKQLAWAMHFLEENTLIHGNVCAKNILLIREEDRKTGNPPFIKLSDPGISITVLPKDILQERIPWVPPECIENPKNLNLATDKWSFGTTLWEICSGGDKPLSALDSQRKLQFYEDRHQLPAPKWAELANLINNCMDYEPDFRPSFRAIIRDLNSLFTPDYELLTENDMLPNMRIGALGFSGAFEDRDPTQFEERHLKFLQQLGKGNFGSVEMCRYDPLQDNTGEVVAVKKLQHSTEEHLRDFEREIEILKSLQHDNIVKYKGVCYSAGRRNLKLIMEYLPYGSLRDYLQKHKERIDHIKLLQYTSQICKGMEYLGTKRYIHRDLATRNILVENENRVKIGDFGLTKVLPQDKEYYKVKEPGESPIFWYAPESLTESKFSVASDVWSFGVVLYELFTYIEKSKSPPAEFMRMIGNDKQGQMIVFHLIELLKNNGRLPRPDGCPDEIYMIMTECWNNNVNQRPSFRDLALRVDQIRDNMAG
T1 sequence (Q9UM73 19-1620): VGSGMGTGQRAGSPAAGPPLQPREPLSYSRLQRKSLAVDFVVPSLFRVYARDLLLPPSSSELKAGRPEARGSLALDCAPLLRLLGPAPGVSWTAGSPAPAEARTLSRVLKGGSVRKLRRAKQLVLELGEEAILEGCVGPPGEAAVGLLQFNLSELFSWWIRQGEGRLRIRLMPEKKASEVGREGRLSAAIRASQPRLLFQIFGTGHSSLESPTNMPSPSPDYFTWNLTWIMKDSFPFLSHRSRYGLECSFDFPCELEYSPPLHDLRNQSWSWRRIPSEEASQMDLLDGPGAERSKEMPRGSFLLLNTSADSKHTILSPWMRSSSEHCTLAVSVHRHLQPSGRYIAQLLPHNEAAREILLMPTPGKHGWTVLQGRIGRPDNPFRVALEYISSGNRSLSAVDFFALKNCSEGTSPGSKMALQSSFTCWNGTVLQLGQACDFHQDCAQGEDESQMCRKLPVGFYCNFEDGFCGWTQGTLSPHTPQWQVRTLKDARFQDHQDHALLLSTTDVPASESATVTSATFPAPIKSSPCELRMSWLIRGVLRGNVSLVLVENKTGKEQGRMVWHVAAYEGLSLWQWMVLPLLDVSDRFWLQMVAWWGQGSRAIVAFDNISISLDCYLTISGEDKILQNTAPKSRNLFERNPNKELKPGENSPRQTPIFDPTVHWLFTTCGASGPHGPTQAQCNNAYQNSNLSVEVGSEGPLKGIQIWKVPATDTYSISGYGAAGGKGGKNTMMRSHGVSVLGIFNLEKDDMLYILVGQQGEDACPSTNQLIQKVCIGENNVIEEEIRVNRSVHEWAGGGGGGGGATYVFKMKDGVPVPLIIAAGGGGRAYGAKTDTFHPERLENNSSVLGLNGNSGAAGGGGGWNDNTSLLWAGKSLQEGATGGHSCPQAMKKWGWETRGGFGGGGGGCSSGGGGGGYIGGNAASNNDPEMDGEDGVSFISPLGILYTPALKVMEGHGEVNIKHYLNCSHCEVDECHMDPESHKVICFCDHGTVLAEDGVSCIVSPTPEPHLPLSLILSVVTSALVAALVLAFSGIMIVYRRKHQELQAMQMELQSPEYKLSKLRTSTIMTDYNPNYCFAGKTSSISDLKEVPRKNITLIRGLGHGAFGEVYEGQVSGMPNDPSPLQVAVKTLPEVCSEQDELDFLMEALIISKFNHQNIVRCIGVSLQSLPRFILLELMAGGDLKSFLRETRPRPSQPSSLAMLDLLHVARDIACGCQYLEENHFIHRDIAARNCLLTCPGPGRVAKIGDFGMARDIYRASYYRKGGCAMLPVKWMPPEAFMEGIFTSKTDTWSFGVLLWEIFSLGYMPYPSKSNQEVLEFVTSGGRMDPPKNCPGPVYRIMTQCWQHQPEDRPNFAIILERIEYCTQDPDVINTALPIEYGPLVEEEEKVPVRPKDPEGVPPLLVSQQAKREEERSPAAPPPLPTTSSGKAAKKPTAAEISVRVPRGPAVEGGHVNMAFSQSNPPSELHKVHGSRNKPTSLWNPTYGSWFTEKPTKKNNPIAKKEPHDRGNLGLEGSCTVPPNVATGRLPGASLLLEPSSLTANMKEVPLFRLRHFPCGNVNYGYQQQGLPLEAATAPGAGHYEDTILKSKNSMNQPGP

Turning to `COc1ccc(-c2ccc3cnc(Nc4ccc(N5CCN(CC(N)=O)CC5)c(F)c4)nn23)cn1` [Example 1415, 2-(4-{2-Fluoro-4-[7-(6-methoxy-pyridin-3-yl)-pyrrolo[2,1-f][1,2,4]triazin-2-ylamino]-phenyl}-piperazin-1-yl)-acetamide], the IC50 is 100 to 1000 nM in test [1] and below 100 nM in test [2].

On to `COc1ccccc1-c1ccc2cnc(Nc3ccc(N4CCN(CC(N)=O)CC4)c(F)c3)nn12` [Example 1416, 2-(4-{2-Fluoro-4-[7-(2-methoxy-phenyl)-pyrrolo[2,1-f][1,2,4]triazin-2-ylamino]-phenyl}-piperazin-1-yl)-acetamide], for which the IC50 was 100 to 1000 nM in test [1] and below 100 nM in test [2].

Take `COc1ccc(-c2ccc3cnc(Nc4ccc(C(=O)N5CCN(C)CC5)cc4)nn23)cn1` [Example 1420, {4-[7-(6-Methoxy-pyridin-3-yl)-pyrrolo[2,1-f][1,2,4]triazin-2-ylamino]-phenyl}-(4-methyl-piperazin-1-yl)-methanone]: the IC50 in test [1] is 1000 to 10000 nM; in test [2], below 100 nM.

For the compound `CN(c1ccccc1-c1ccc2cnc(Nc3ccc(N4CCN(CC(N)=O)CC4)c(F)c3)nn12)S(C)(=O)=O` [Example 1422, 2-[4-(2-Fluoro-4-{7-[2-(methanesulfonyl-methyl-amino)-phenyl]-pyrrolo[2,1-f][1,2,4]triazin-2-ylamino}-phenyl)-piperazin-1-yl]-acetamide], the IC50 in test [1] was 100 to 1000 nM; in test [2], below 100 nM.

Consider `CN1CCN(C(=O)c2ccc(Nc3ncc4ccc(-c5ccccc5N(C)S(C)(=O)=O)n4n3)cc2)CC1` [Example 1425, N-Methyl-N-(2-{2-[4-(4-methyl-piperazine-1-carbonyl)-phenylamino]-pyrrolo[2,1-f][1,2,4]triazin-7-yl}-phenyl)-methanesulfonamide], for which the results for the IC50 in test [1] and in test [2] were 100 to 1000 nM and below 100 nM, respectively.

`NC(=O)CN1CCC(c2ccc(Nc3ncc4ccc(-c5ccccc5O)n4n3)cc2)CC1` [Example 1427, 2-(4-{4-[7-(2-Hydroxy-phenyl)-pyrrolo[2,1-f][1,2,4]triazin-2-ylamino]-phenyl}-piperidin-1-yl)-acetamide]: the IC50 in test [1] was 100 to 1000 nM; in test [2] it was below 100 nM.

As to `CN(c1ccccc1-c1ccc2cnc(Nc3ccc(CN4CCCC4)cc3)nn12)S(C)(=O)=O` [Example 1428, N-Methyl-N-{2-[2-(4-pyrrolidin-1-ylmethyl-phenylamino)-pyrrolo[2,1-f][1,2,4]triazin-7-yl]-phenyl}-methane sulfonamide], the IC50 in test [1] was 100 to 1000 nM; in test [2], below 100 nM.

Consider `CC(C)(C)NS(=O)(=O)c1cccc(-c2ccc3cnc(Nc4ccc(CN5CCCC5)cc4)nn23)c1` [Example 1429, N-tert-Butyl-3-[2-(4-pyrrolidin-1-ylmethyl-phenylamino)-pyrrolo[2,1-f][1,2,4]triazin-7-yl]-benzenesulfonamide], for which the IC50 in test [1] was 100 to 1000 nM; in test [2], below 100 nM.

Regarding `COc1ccccc1-c1ccc2cnc(Nc3ccc(CN4CCCC4)cc3)nn12` [Example 1430, [7-(2-Methoxy-phenyl)-pyrrolo[2,1-f][1,2,4]triazin-2-yl]-(4-pyrrolidin-1-ylmethyl-phenyl)-amine], the IC50 in test [1] and in test [2] was below 100 nM in each case.

Regarding `C[C@H](O)CN1CCC(c2ccc(Nc3ncc4ccc(-c5cccc(S(C)(=O)=O)c5)n4n3)cc2)CC1` [Example 1431, (S)-1-(4-{4-[7-(3-Methanesulfonyl-phenyl)-pyrrolo[2,1-f][1,2,4]triazin-2-ylamino]-phenyl}-piperidin-1-yl)-propan-2-ol], the IC50 was 100 to 1000 nM in test [1] and below 100 nM in test [2].

As to `C[C@H](O)CN1CCC(c2ccc(Nc3ncc4ccc(-c5ccc(S(C)(=O)=O)cc5)n4n3)cc2)CC1` [Example 1432, (S)-1-(4-{4-[7-(4-Methanesulfonyl-phenyl)-pyrrolo[2,1-f][1,2,4]triazin-2-ylamino]-phenyl}-piperidin-1-yl)-propan-2-ol], the IC50 in test [1] and in test [2] was below 100 nM throughout.

For `CN(C)Cc1ccc(-c2ccc3cnc(Nc4ccc(C5CCN(CC(N)=O)CC5)cc4)nn23)cc1` [Example 1433, 2-(4-{4-[7-(4-Dimethylaminomethyl-phenyl)-pyrrolo[2,1-f][1,2,4]triazin-2-ylamino]-phenyl}-piperidin-1-yl)-acetamide], the IC50 in test [1] and in test [2] was 1000 to 10000 nM throughout.

For the compound `CS(=O)(=O)c1cccc(-c2ccc3cnc(Nc4ccc(C5CCN(CC(N)=O)CC5)cc4)nn23)c1` [Example 1434, 2-(4-{4-[7-(3-Methanesulfonyl-phenyl)-pyrrolo[2,1-f][1,2,4]triazin-2-ylamino]-phenyl}-piperidin-1-yl)-acetamide], the IC50 in test [1] is 100 to 1000 nM; in test [2], below 100 nM.

As for `CS(=O)(=O)c1ccc(-c2ccc3cnc(Nc4ccc(C5CCN(CC(N)=O)CC5)cc4)nn23)cc1` [Example 1435, 2-(4-{4-[7-(4-Methanesulfonyl-phenyl)-pyrrolo[2,1-f][1,2,4]triazin-2-ylamino]-phenyl}-piperidin-1-yl)-acetamide], the IC50 was 100 to 1000 nM in test [1] and below 100 nM in test [2].

On to `CN1CCN(c2ccc(Nc3ncc4ccc(-c5ccc(S(C)(=O)=O)cc5)n4n3)cc2F)CC1` [Example 1437, [3-Fluoro-4-(4-methyl-piperazin-1-yl)-phenyl]-[7-(4-methanesulfonyl-phenyl)-pyrrolo[2,1-f][1,2,4]triazin-2-yl]-amine], for which the IC50 is 100 to 1000 nM in test [1] and below 100 nM in test [2].

On to `COc1cc(N2CCCC(N3CCOCC3)C2)ccc1Nc1ncc2ccc(-c3ccccc3OC)n2n1` (stereo not shown) [Example 1444, [2-Methoxy-4-(3-morpholin-4-yl-piperidin-1-yl)-phenyl]-[7-(2-methoxy-phenyl)-pyrrolo[2,1-f][1,2,4]triazin-2-yl]-amine], for which the IC50 in test [1] is below 100 nM; in test [2], 100 to 1000 nM.

`COc1cc(N2CCCC(N3CC(C)OC(C)C3)C2)ccc1Nc1ncc2ccc(-c3ccccc3OC)n2n1` (stereo not shown) [Example 1445, {4-[3-(2,6-Dimethyl-morpholin-4-yl)-piperidin-1-yl]-2-methoxy-phenyl}-[7-(2-methoxy-phenyl)-pyrrolo[2,1-f][1,2,4]triazin-2-yl]-amine]: the IC50 in test [1] is below 100 nM; in test [2], 100 to 1000 nM.

On to `COc1cc(N2CCC(N3CCOCC3)CC2)ccc1Nc1ncc2ccc(-c3ccccc3NS(C)(=O)=O)n2n1` [Example 1450, N-(2-{2-[2-Methoxy-4-(4-morpholin-4-yl-piperidin-1-yl)-phenylamino]-pyrrolo[2,1-f][1,2,4]triazin-7-yl}-phenyl)-methanesulfonamide], for which the IC50 in test [1] and in test [2] was 100 to 1000 nM throughout.

In the case of `COc1cc(N2CCC(N3CCOCC3)CC2)ccc1Nc1ncc2ccc(-c3ccccc3OC(C)C)n2n1` [Example 1451, [7-(2-Isopropoxy-phenyl)-pyrrolo[2,1-f][1,2,4]triazin-2-yl]-[2-methoxy-4-(4-morpholin-4-yl-piperidin-1-yl)-phenyl]-amine], the IC50 in test [1] and in test [2] was below 100 nM throughout.

In the case of `COc1ccccc1-c1ccc2cnc(Nc3ccc4c(c3OC)CCC(N3CCOCC3)CC4)nn12` (stereo not shown) [Example 1452, (1-Methoxy-7-morpholin-4-yl-6,7,8,9-tetrahydro-5H-benzo cyclohepten-2-yl)-[7-(2-methoxy-phenyl)-pyrrolo[2,1-f][1,2,4]triazin-2-yl]-amine], the IC50 is below 100 nM in test [1] and 100 to 1000 nM in test [2].
